Experimental data reported in ChEMBL document CHEMBL5608141, “Identification of compartment-specific drug sensitivities in CRC organoid-stroma co-cultures” (2024).

Legend:
Format in all cases: functional, Homo sapiens
Design in all cases: dose or concentration left out as unconfirmed
Colon cancer organoid [1] = test: Identification of compartment-specific drug sensitivities in O06 CRC organoid-stroma F06 CAF co-cultures. Organoid is transduced with Lucferase2-P2A-EGFP lentivirus, fibroblast with Renilla-dsRed lentivirus. Dual-Glo Luciferase assay is used to report viability data.
Colon cancer organoid [2] = test: Identification of compartment-specific drug sensitivities in O20 CRC organoid-stroma F20 CAF co-cultures. Organoid is transduced with Lucferase2-P2A-EGFP lentivirus, fibroblast with Renilla-dsRed lentivirus. Dual-Glo Luciferase assay is used to report viability data.
Colon cancer organoid [3] = test: Identification of compartment-specific drug sensitivities in O14 CRC organoid-stroma F14 CAF co-cultures. Organoid is transduced with Lucferase2-P2A-EGFP lentivirus, fibroblast with Renilla-dsRed lentivirus. Dual-Glo Luciferase assay is used to report viability data.
[4] = Transduced with Lucferase2-P2A-EGFP lentivirus
[5] = Transduced with Renilla-dsRed lentivirus

| SMILES | Cell Viability (Colon cancer organoid [1]; [4]) [%] | Cell Viability (Colon cancer organoid [1]; [5]) [%] | Cell Viability (Colon cancer organoid [2]; [4]) [%] | Cell Viability (Colon cancer organoid [2]; [5]) [%] | Cell Viability (Colon cancer organoid [3]; [4]) [%] | Cell Viability (Colon cancer organoid [3]; [5]) [%] |
| --- | --- | --- | --- | --- | --- | --- |
| CCN(CCO)CCCOc1ccc2c(Nc3cc(CC(=O)Nc4cccc(F)c4)[nH]n3)ncnc2c1 [DEFOSBARASERTIB] | 9.138 | 166.163 | 5.365 | 225.013 | 12.9014 | 101.396 |
| Cc1cc(F)c(C(=O)Nc2cccc(-c3nncn3C(C)C)n2)cc1-n1cnc(C2CC2)c1 [SELONSERTIB] | 89.6649 | 105.018 | 141.758 | 89.2485 | 143.918 | 74.3836 |
| Cc1cnc(-c2cc(Cl)ccc2F)cc1-n1c(=O)n(CC(N)=O)c2cnccc21 [TP-008] | 13.7504 | 213.932 | 64.1266 | 114.054 | 74.2388 | 68.4272 |
| Cc1c(NC(=O)c2cc(C(N)=O)nc3cc(F)ccc23)c(C(F)(F)F)nn1Cc1ccc(C#N)cc1 [BAY-876] | 11.8045 | 337.56 | 13.842 | 190.785 | 20.1463 | 59.1997 |
| CO[C@@H](C)c1c(Nc2ccc([C@@H](N(C)C(=O)C3CCS(=O)(=O)CC3)C(F)(F)F)cc2)cnc2cc(Cl)nn12 [NVS-MALT1-C] | 50.6957 | 73.6522 | 83.7008 | 108.215 | 71.9282 | 88.3744 |
| CC(=O)Nc1ncc(CN2CCC[C@H](Cc3cc(C)nc(C)c3)C2)s1 [JNJ-65355394] | 116.935 | 172.928 | 88.5022 | 103.797 | 108.182 | 61.6526 |
| CCCOc1ccn2c(C(C)=O)cc(-c3ccccc3S(C)(=O)=O)c2c1 | 121.922 | 129.269 | 150.252 | 117.742 | 92.2028 | 99.133 |
| CO[C@H]1CC[C@H](CNc2ccc(S(=O)(=O)NC(=O)c3ccc(N4CCN(CC5=C(c6ccc(Cl)cc6)CC(C)(C)CC5)CC4)cc3Oc3cnc4[nH]ccc4c3)cc2[N+](=O)[O-])CC1 [A-1211212] | 8.693 | 108.861 | 16.4932 | 159.244 | 54.5485 | 97.9178 |
| CSc1cccnc1N1CCN(Cc2nc3ccccc3[nH]2)CC1 [A-769] | 75.6066 | 105.586 | 125.432 | 98.3481 | 118.57 | 113.172 |
| COc1ccc2c(c1)O[C@H](c1ccc(OC)c(OC)c1)C[C@@H]2NC(=O)C1(c2ccc3c(c2)OC(F)(F)O3)CC1 [A-1596584] | 86.7173 | 88.6658 | 73.1553 | 142.746 | 91.0132 | 118.771 |
| Cn1c(C2(NC(=O)c3ccc4c(C5CCCC5)c(-c5ncc(Br)cn5)n(C)c4c3)CCC2)nc2ccc(/C=C/C(=O)O)cc21 [DELEOBUVIR] | 117.892 | 131.89 | 79.9036 | 130.288 | 99.2157 | 60.0807 |
| Cc1c(Oc2ccc(F)cc2)c(OC(C)C)nn1-c1ccc(C2CC2)cn1 [IPP/CNRS-A019] | 92.46 | 90.9232 | 91.0165 | 118.396 | 67.4569 | 79.6967 |
| CC1CCN(c2ccnc(NCc3cn(C)cn3)n2)CC1 [TP-040] | 104.895 | 163.738 | 75.5826 | 95.0735 | 70.4837 | 82.5883 |
| Cc1cc(C)cc(C(=O)NOCCCCCC(=O)NO)c1 | 13.8956 | 454.718 | 15.4081 | 402.959 | 50.2494 | 170.815 |
| CN(C)C(=O)N1CC[C@H](NC2=Nc3cc(F)ccc3N(CC(F)F)c3ccc(Cl)cc32)C1 | 22.5333 | 79.8107 | 71.357 | 98.2431 | 119.43 | 91.6025 |
| O=C(O)[C@@H]1[C@@H](Cn2nnc3ccccc3c2=O)CC[C@H]1C(=O)c1ccc(OCCC2CCOCC2)cc1 [BAY-694] | 99.0718 | 68.3581 | 92.0939 | 91.7477 | 127.223 | 103.773 |

| SMILES | Cell Viability (Colon cancer organoid [1]; [4]) [%] | Cell Viability (Colon cancer organoid [1]; [5]) [%] | Cell Viability (Colon cancer organoid [2]; [4]) [%] | Cell Viability (Colon cancer organoid [2]; [5]) [%] | Cell Viability (Colon cancer organoid [3]; [4]) [%] | Cell Viability (Colon cancer organoid [3]; [5]) [%] |
| --- | --- | --- | --- | --- | --- | --- |
| CC(=O)C1=C(C)N(c2cccc(C(F)(F)F)c2)C(=O)N[C@H]1c1ccc(C#N)nc1 [BAY-677] | 73.3465 | 89.4043 | 134.265 | 107.791 | 123.312 | 108.035 |
| Cc1nc(-c2cn3c(n2)-c2ccc(-c4cnn(C(C)(C)C(N)=O)c4)cc2OCC3)n(C(C)C)n1 [TASELISIB] | 42.3556 | 62.2904 | 15.8824 | 146.008 | 38.4959 | 67.2929 |
| O=C(N1CCS(=O)(=O)CC1)N1C[C@H](c2ccc(OC(F)(F)F)cc2)C[C@H](c2nc(C3CC3)no2)C1 [BAY-386] | 109.098 | 172.496 | 61.9652 | 114.29 | 96.4412 | 110.483 |
| O=C(NCCN1CCOCC1)c1ccc2c(c1)C(=O)c1ccc(Nc3ccc(F)c(NC(=O)c4ccccc4)c3)cc1CC2 [FS-694] | 67.8661 | 67.282 | 66.3241 | 119.038 | 121.73 | 92.4198 |
| Cc1ccc2[nH]c(CNCCCc3ccncc3)cc(=O)c2c1 [UCSF924NC] | 92.2965 | 82.507 | 121.808 | 109.302 | 107.168 | 100.112 |
| CCc1ccccc1C(=O)Nc1n[nH]c2c(C)c(F)c(C3C(C#N)=C(C)N(C)C(C)=C3C#N)cc12 [BAY-3827] | 43.7855 | 108.902 | 74.4041 | 157.673 | 97.9341 | 94.3175 |
| CN(C)C(=O)c1sc2nc(N3CCC(S(C)(=O)=O)CC3)cc(C(F)(F)F)c2c1N [BI-5026] | 108.851 | 103.89 | 83.1119 | 112.021 | 89.1429 | 109.835 |
| NS(=O)(=O)c1cc(NC(=O)Cc2ccccc2)ccc1Oc1cccc(Cl)c1 [BAY-1797] | 89.5842 | 298.319 | 89.0927 | 86.996 | 92.6745 | 115.956 |
| Cc1noc(C)c1-c1cnc2c(-c3ccc(C(=O)O)cc3)cn([C@@H](C)c3ccccn3)c2c1 [PLX-51107] | 26.8486 | 312.702 | 17.7697 | 177.825 | 39.3332 | 170.275 |
| Cl.Cl.NC1(c2ccc(-c3nc4ccn5c(=O)[nH]nc5c4cc3-c3ccccc3)cc2)CCC1 | 59.9467 | 67.7481 | 44.0229 | 145.22 | 76.882 | 55.4067 |
| CCC(=O)Nc1cccc(Oc2nc(Nc3ccc(N4CCN(C)CC4)cc3OC)ncc2Cl)c1 | 92.8013 | 94.5997 | 125.304 | 105.023 | 157.299 | 90.5023 |
| CN1CCN(C(=O)C(C)(C)c2ccc(C(=O)Nc3cn4cc(-c5ccncc5)ccc4n3)cc2)CC1 [T3-CLK] | 27.6026 | 129.967 | 17.3495 | 291.942 | 20.1131 | 93.3356 |
| CN(C)C(=O)c1ccc(-c2cc(C(=O)N[C@@H]3CCc4ccccc43)no2)cc1O | 113.879 | 93.2478 | 99.2292 | 104.475 | 90.3054 | 109.902 |
| CS(=O)(=O)N1CCN(Cc2cc3nc(-c4cccc5[nH]ncc45)nc(N4CCOCC4)c3s2)CC1 [PICTILISIB] | 43.124 | 60.0718 |  |  | 42.7401 | 54.6957 |
| COc1ccccc1C(=O)Nc1cc2c(cc1N1CCCC1)n(C)c(=O)n2C |  |  | 114.161 | 143.545 |  |  |
